The values that follow come from US6632795B1, “Dolastatin-15 derivatives in combination with taxanes” (BASF Aktiengesellschaft, priority 1997, dated 2003).

Data set [1] deals with National Cancer Institute's P388 lymphocytic leukemia cell line. As to conditions: cited from earlier work.
The conditions of data set [2]: cited from earlier work.
Data set [3] has as its system P388 tumor cells (murine lymphocytic leukemia cell line). In words: P388 in vivo tumor model (ascites, intraperitoneal implant). More on the design: species or system mice. As to conditions: Q4Dx3, 1. How it is done: The P388 tumor model employs a murine lymphocytic leukemia cell line (See Schabel et al., Pharmac. Ther. A, 1:411-435). The P388 tumor cells used in this invention, were harvested from donor mice by peritoneal lavage at day 7 post transplant. 1×10^6 P388 tumor cells were then implanted intraperitoneally in a volume of 0.5 ml in mice.
A typical dosing regimen includes initiation of treatment approximately one day post transplant followed by treatment on days 5 and 9 post transplant. Generally the compounds of Formula I are administered intravenously (i.v.) and the paclitaxel, taxotere or modified taxane or taxoid analog is administered intraperitoneally (i.p.).
Therapeutic results of the combinations of the invention against P388 cells, are presented in terms of increase in lifespan reflected by the relative median survival time (MST) of treated (T) versus control (C) group (survival period for untreated mice is generally in the range of 11 to 13 days) and is represented as %T/C values. According to the National Cancer Institute guidelines a %T/C in the range or 128-190% indicates a drug with moderate to good activity. In addition, the Net log Cell Kill is used to compare efficacy of different schedules and combinations, and is calculated as follows: [formula]
Doubling Time=time required for control tumors to double once (0.4 days)
T and C=the median survival time (days) for the control (C) and treated (T) mice.
Duration of treatment with drug 0.332=Derived constant
1×10^6 P388 tumor cells were transplanted intraperitoneally in a volume of 0.5 ml in mice. Treatment was initiated approximately 1 day later followed by treatment on both day 5 and day 9, post transplant. Compound (xvii) was administered IV while paclitaxel was administered IP. […] The dosing was sequential with compound (xvii) being administered first followed by paclitaxel one hour later.

Data set [4] relates to LX-1 human lung tumor xenograft. Put plainly: LX-1 human tumor xenograft model. Format: in vivo, human (xenograft in athymic nude mice). As to conditions: Q2Dx3, 5,12,19. As for the experimental part:
(§1) Human tumors from lung (LX-1), colon (CX-1) and prostate (PC-3) which had been grown in athymic nude mice were transplanted (xenografted) into new recipient mice, as is well known in the art. The transplanted tumor fragments were approximately 50 mg in size. The day of transplantation was designated as day 0. The combination therapy of the present invention was evaluated for anti-tumor efficacy following administration to the xenograft-bearing mice.
(§2) Combination therapy was accomplished by intravenous administration of both drugs. […] In other words, treatment consisted of 3 cycles, starting on days 5, 12 and 19 post tumor implantation. One cycle of treatment consisted of treatment every other day for a total of three times.
(§3) Tumor diameters and body weights were measured twice weekly. Tumor volumes were calculated using the diameters measured with Vernier calipers, and the formula:
(§4) (length×width^2)/2=mg of tumor weight
(§5) Mean tumor weights (MTW) were calculated for each treatment group, and T/C values determined for each group relative to the untreated control tumors.
(§6) Results are also presented as Net log Cell Kill and are calculated as follows: [formula]
(§7) T and C=The median days required for the control and treated tumors to reach a specified tumor size, in this instance 2000 mm^3.
(§8) Doubling Time=Time required for control tumors to double in size.
(§9) The Q2dx3; 5, 12 and 19 dosing regimen described above was used in this example. Paclitaxel was administered IV one hour after Compound (xvii) was administered IV.
(In general: Xenograft models place foreign cells or tissue in a host animal.)

For data set [5], the system named is CX-1 human colon tumor xenograft. In words: CX-1 human tumor xenograft model. The following applies: Q2Dx3, 5,12,19. Format: in vivo, human (xenograft in athymic nude mice). As for the experimental part:
as §1, §2, §3, §4, §5, §6, §7, §8, §9

In data set [6] the test system is PC-3 human prostate tumor xenograft. Put plainly: PC-3 human tumor xenograft model. The format is in vivo, human (xenograft in athymic nude mice). The following applies: Q2Dx3, 5,12,19; for MTW d35 % T/C: mean tumor weight day 35; for R[…]: of 6 animals. How it is done: as §1, §2, §3, §4, §5, §6, §7, §8
The Q2dx3; 5, 12 and 19 dosing regimen described above was used in this example. Paclitaxel was administered IP one hour after Compound (xvii) was administered IV. The optimal single dose of both paclitaxel and Compound (xvii) was not determined.

[7] abbreviates: paclitaxel 10 mg/kg IV alone, of 6 animals.

Peptide text beside a SMILES is read from it.

Consider Dolastatin-15, for which, in data set [1], the “inhibition of cell growth (in words)” value is “markedly inhibits the growth”. Also, the “aqueous solubility (in words)” value in data set [2] was “poor aqueous solubility”.
Take `CC(=O)O[C@H]1C(=O)[C@@]2(C)[C@H]([C@H](OC(=O)c3ccccc3)[C@]3(O)C[C@H](OC(=O)[C@H](O)[C@@H](NC(=O)c4ccccc4)c4ccccc4)C(C)=C1C3(C)C)[C@]1(OC(C)=O)CO[C@@H]1C[C@@H]2O` [Paclitaxel]: the “% T/C (median survival time treated vs control)” value in data set [3] (paclitaxel 10 mg/kg IP alone) is on record as 183%; in data set [3] (paclitaxel 20 mg/kg IP alone) it was 175%; in data set [3] (paclitaxel 30 mg/kg IP alone), 204%. The “% Toxic Death” value in data set [3] (paclitaxel 10 mg/kg IP alone) is on record as 0%; in data set [3] (paclitaxel 20 mg/kg IP alone), 0%; in data set [3] (paclitaxel 30 mg/kg IP alone) it was 8%; in data set [4] (paclitaxel 10 mg/kg IV alone), 0%; in data set [6] (paclitaxel 10 mg/kg IP alone), 0%; in data set [6] (paclitaxel 20 mg/kg IP alone), 0%. Moreover, the “% Toxic Death” value in data set [6] (paclitaxel 30 mg/kg IP alone) was 17%. Also, the “Net Log Cell Kill” value is 1.33 in data set [3] (paclitaxel 10 mg/kg IP alone); 0.66 in data set [3] (paclitaxel 20 mg/kg IP alone); 2.99 in data set [3] (paclitaxel 30 mg/kg IP alone); −0.374 in data set [4] (paclitaxel 10 mg/kg IV alone); −0.124 in data set [5] (paclitaxel 10 mg/kg IV alone); −0.672 in data set [6] (paclitaxel 10 mg/kg IP alone). The “Net Log Cell Kill” value was 1.98 in data set [6] (paclitaxel 20 mg/kg IP alone) and “toxic” in data set [6] (paclitaxel 30 mg/kg IP alone). In addition, the “% 60 Day Cures” value in data set [3] (paclitaxel 20 mg/kg IP alone) stood at 4%; in data set [3] (paclitaxel 30 mg/kg IP alone), 3%. For the same molecule, the “MTW d27 % T/C” value in data set [4] (paclitaxel 10 mg/kg IV alone, mean tumor weight day 27) is recorded as 10.5%. Also, the “R[…]” value in data set [4] (setting [7]) is listed as 2; in data set [5] (setting [7]), 2; in data set [6] (paclitaxel 10 mg/kg IP alone), 2; in data set [6] (paclitaxel 30 mg/kg IP alone), 5. In addition, the “MTW d55 % T/C” value in data set [5] (paclitaxel 10 mg/kg IV alone, mean tumor weight day 55) is given as 38.12%. The “MTW d35 % T/C” value is listed as 55.12% in data set [6] (paclitaxel 10 mg/kg IP alone), 2.86% in data set [6] (paclitaxel 20 mg/kg IP alone) and 2% in data set [6] (paclitaxel 30 mg/kg IP alone).
Regarding `CC(C)[C@H](NC(=O)[C@H](C(C)C)N(C)C)C(=O)N(C)[C@H](C(=O)N1CCC[C@H]1C(=O)N1CCC[C@H]1C(=O)NCc1ccccc1)C(C)C` [Compound (xvii)] (HELM PEPTIDE1{[CC(C)[C@@H](C(=O)[*:2])N(C)C].V.[meV].P.P.[c1ccc(CN[*:1])cc1]}$$$$V2.0), the “% Toxic Death” value in data set [3] ((xvii) 20 mg/kg IV alone), in data set [3] ((xvii) 40 mg/kg IV alone), in data set [3] ((xvii) 60 mg/kg IV alone), in data set [4] ((xvii) 7.5 mg/kg IV alone), in data set [4] ((xvii) 15 mg/kg IV alone) and in data set [4] ((xvii) 25 mg/kg IV alone) was 0% each time. Besides, the entries for the “% Toxic Death” value in data set [5] ((xvii) 25 mg/kg IV alone) and in data set [6] ((xvii) 30 mg/kg IV alone) were 83% and 33%, respectively.
